Data reported in ChEMBL document CHEMBL4627246, “Pyroglutamide-Based P2X7 Receptor Antagonists Targeting Inflammatory Bowel Disease” (J Med Chem, 2020).

Tests used:
Assay type in all cases: cell-based
COLO 205 = test: Cytotoxicity against human COLO205 cells assessed as effect on cell growth at 10 uM incubated for 48 hrs by sulforhodamine B assay; conditions: colo 205, 48 h
SK-MEL-5 = test: Cytotoxicity against human SK-MEL-5 cells assessed as effect on cell growth at 10 uM incubated for 48 hrs by sulforhodamine B assay; conditions: sk-mel-5, 48 h
KM12 = test: Cytotoxicity against human KM12 cells assessed as effect on cell growth at 10 uM incubated for 48 hrs by sulforhodamine B assay; conditions: km12, 48 h
NCI-H522 = test: Cytotoxicity against human NCI-H522 cells assessed as effect on cell growth at 10 uM incubated for 48 hrs by sulforhodamine B assay; conditions: nci-h522, 48 h
SK-MEL-28 = test: Cytotoxicity against human SK-MEL-28 cells assessed as effect on cell growth at 10 uM incubated for 48 hrs by sulforhodamine B assay; conditions: sk-mel-28, 48 h
SR = test: Cytotoxicity against human SR cells assessed as effect on cell growth at 10 uM incubated for 48 hrs by sulforhodamine B assay
SF-295 = test: Cytotoxicity against human SF295 cells assessed as effect on cell growth at 10 uM incubated for 48 hrs by sulforhodamine B assay; conditions: sf-295, 48 h
SK-OV-3 = test: Cytotoxicity against human SKOV3 cells assessed as effect on cell growth at 10 uM incubated for 48 hrs by sulforhodamine B assay; conditions: sk-ov-3, 48 h
NCI-H226 = test: Cytotoxicity against human NCI-H226 cells assessed as effect on cell growth at 10 uM incubated for 48 hrs by sulforhodamine B assay; conditions: nci-h226, 48 h
EKVX = test: Cytotoxicity against human EKVX cells assessed as effect on cell growth at 10 uM incubated for 48 hrs by sulforhodamine B assay
LOX IMVI = test: Cytotoxicity against human LOXIMVI cells assessed as effect on cell growth at 10 uM incubated for 48 hrs by sulforhodamine B assay
NCI/ADR-RES = test: Cytotoxicity against human NCI/ADR-RES cells assessed as effect on cell growth at 10 uM incubated for 48 hrs by sulforhodamine B assay
NCI-H460 = test: Cytotoxicity against human NCI-H460 cells assessed as effect on cell growth at 10 uM incubated for 48 hrs by sulforhodamine B assay; conditions: nci-h460, 48 h
HOP-62 = test: Cytotoxicity against human HOP62 cells assessed as effect on cell growth at 10 uM incubated for 48 hrs by sulforhodamine B assay; conditions: hop-62, 48 h
Hs-578T = test: Cytotoxicity against human Hs 578T cells assessed as effect on cell growth at 10 uM incubated for 48 hrs by sulforhodamine B assay
UACC-257 = test: Cytotoxicity against human UACC257 cells assessed as effect on cell growth at 10 uM incubated for 48 hrs by sulforhodamine B assay; conditions: uacc-257, 48 h
K562 = test: Cytotoxicity against human K562 cells assessed as effect on cell growth at 10 uM incubated for 48 hrs by sulforhodamine B assay; conditions: k562, 48 h
BT-549 = test: Cytotoxicity against human BT549 cells assessed as effect on cell growth at 10 uM incubated for 48 hrs by sulforhodamine B assay; conditions: bt-549, 48 h
SN12C = test: Cytotoxicity against human SN12C cells assessed as effect on cell growth at 10 uM incubated for 48 hrs by sulforhodamine B assay
A549 = test: Cytotoxicity against human A549/ATCC cells assessed as effect on cell growth at 10 uM incubated for 48 hrs by sulforhodamine B assay; conditions: a549, 48 h

Measured: Activity

O=C(NCCc1ccc(Cl)cc1Cl)[C@@H]1CCC(=O)N1c1ccccc1
Non-Toxic: all assays above

O=C(NCc1ccccc1Cl)[C@@H]1CCC(=O)N1Cc1ccccc1Cl
Non-Toxic: all assays above

CN1C(=O)CC[C@H]1C(=O)NCc1cccc(C(F)(F)F)c1Cl [GSK1482160]
Non-Toxic: all assays above

O=C(NCc1ccccc1Cl)[C@@H]1CCC(=O)N1Cc1ccc(Cl)cc1
Non-Toxic: all assays above

O=C(NCc1ccc(Cl)cc1Cl)[C@@H]1CCC(=O)N1Cc1ccc(Cl)cc1
Non-Toxic: all assays above

CCCCCCN1C(=O)[C@@H]2CCC(=O)N2C1N(C)C (stereo not given in full)
Non-Toxic: all assays above

CN(C)/C=C1\C[C@H]2C(=O)N(Cc3ccc(Cl)cc3Cl)C(N(C)C)N2C1=O (stereo not given in full)
Non-Toxic: all assays above

CN(C)/C=C1\C[C@H]2C(=O)N(/C(=C/N(C)C)c3ccncc3)C(N(C)C)N2C1=O (stereo not given in full)
Non-Toxic: all assays above

O=C(NCc1ccc(Cl)cc1Cl)[C@@H]1CCC(=O)N1c1cccs1
Non-Toxic: all assays above
